Data reported in patent US5250537A, “5,6,7,8,9,10-hexahydro-7 ,10-iminocyclohept[b]indole,-6,7,8,9,10-hexahydro-7,11-imino-5H-cyclooct[ b]indole and substituted derivatives” (Scios Nova Inc., priority 1992, dated 1993).
Like-named read-outs stand apart in the source and are kept apart here.

How the values were obtained:
[1] = target: sigma receptor ([3H]DTG site); test: In Vitro Sigma Receptor Binding, [3H]DTG; details: guinea pig brain; 45 minutes at 25° C.
Procedure: (§1) For both assays frozen guinea pig brains (PelFreez Biologicals, Rogers, AK) were thawed and homogenized in 10 volumes (w/v) of ice cold 0.32M sucrose using 10 strokes of a motor-drivenglass-fitted teflon pestle adjusted to 600 rpm. The homogenate was centrifuged (4° C.) at 900× g for 10 minutes and the resultant supernatant collected and centrifuged at 22,000×g for 20 minutes. The pellet obtained from the centrifugation was resuspended in 10 volumes of 50 mM Tris HCl (pH 7.4, 25° C.) and incubated for 30 minutes at 37° C. Following the preincubation, the homogenate was centrifuted at 22,000×g for 20 minutes and the final pellet was resuspended in buffer to a protein concentration of 0.5-1.0 mg/mL for use in the assay.
(§2) Binding reactions were initiated by the addition of tissue (800 μL) to tubes containing assay buffer, the radioligand (final concentration 1-3 nM) and the compound of interest. Haloperidol (10 μM) and (+)-3-PPP (10 μM) were used to determine the levels of […] [^3 H]DTG and [^3 H](+)PPP binding, respectively. Final assay volume was 1 mL. Reactions were allowed to proceed for 45 minutes at 25° C. and terminated by rapid filtration over Whatman GF/B filters which were washed 3 times with 5 mL of cold buffer. Radioactivity trapped on the filters was determined using routine methods. […] All assays were performed using triplicate determinations. For comparison purposes, IC50 values are reported rather than Ki values.

[2] = target: T1, sigma receptor ([3H](+)-3-PPP site) (Cavia porcellus, UniProt Q60492); test: In Vitro Sigma Receptor Binding, [3H](+)-3-PPP; set-up: species or system guinea pig; details: 45 minutes at 25° C.
T1 construct: frozen guinea pig brains; tissue PelFreez Biologicals, Rogers, AK; host or cells: guinea pig brain membranes
T1 sequence (Q60492 whole entry): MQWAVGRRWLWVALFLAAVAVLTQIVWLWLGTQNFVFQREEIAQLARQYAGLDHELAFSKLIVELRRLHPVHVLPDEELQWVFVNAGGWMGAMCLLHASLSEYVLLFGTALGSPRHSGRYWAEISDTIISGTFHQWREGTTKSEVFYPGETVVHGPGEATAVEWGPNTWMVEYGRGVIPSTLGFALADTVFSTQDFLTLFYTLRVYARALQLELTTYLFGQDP
Procedure: as §1, §2

dopamine (D-2) receptors = target: T2, dopamine (D-2) receptors (Rattus norvegicus, UniProt P61169); test: In Vitro Dopamine (D-2) Receptor Binding, [3H]sulpiride
T2 construct: the corpus striatum was dissected and homogenized; from tissue; host or cells: rat corpus striatum membranes
T2 sequence (P61169 whole entry): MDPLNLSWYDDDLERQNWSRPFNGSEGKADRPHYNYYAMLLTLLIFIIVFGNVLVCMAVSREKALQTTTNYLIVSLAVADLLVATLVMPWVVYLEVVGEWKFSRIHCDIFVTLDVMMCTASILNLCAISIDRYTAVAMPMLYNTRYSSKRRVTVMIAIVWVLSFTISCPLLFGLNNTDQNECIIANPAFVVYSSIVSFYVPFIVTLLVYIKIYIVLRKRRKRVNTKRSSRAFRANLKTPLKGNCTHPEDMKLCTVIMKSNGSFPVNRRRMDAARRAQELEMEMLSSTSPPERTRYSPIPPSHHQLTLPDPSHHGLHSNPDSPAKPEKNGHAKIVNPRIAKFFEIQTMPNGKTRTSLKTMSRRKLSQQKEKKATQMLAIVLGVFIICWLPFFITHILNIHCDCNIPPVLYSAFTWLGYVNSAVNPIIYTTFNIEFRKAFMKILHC
Procedure: On the day of assay, rats were sacrificed by decapitation, the corpus striatum was dissected and homogenized in 20 volumes of ice-cold 50 mM Tris HCl (pH 7.5, 25° C.). The homogenate was centrifuged (4° C.) at 48,000×g for 10 minutes and the resulting pellet was resuspended in 20 volumes of fresh buffer and recentrifuged. […] A portion of the suspension (800 μL) was added in triplicate to tubes containing 3 nM [^3 H]sulpiride and the test compound. The final assay volume was 1 mL; haloperidol (10 μM) was used to determine non-specific binding. Following a 60 minute incubation at 25° C., the reactions were terminated by rapid filtration over Whatman GF/B filters which had been pretreated in a solution of 0.3% (w/v) of aqueous polyethylenimine. Filters were washed three times using 5 mL of ice-cold buffer and processed using standard procedures to determine radioactivity. IC50 values were obtained from concentration-response curves in which a number of concentrations of test compound were examined. Ki values were determined using the Cheng-Prusoff equation.

[3] = target: T3, serotonin 5-HT2 receptors (Rattus norvegicus, UniProt P14842); test: In Vitro Serotonin (5-HT2) Receptor Binding, [3H]ketanserin; details: for Ki: rat cortical membranes, 1 nM [3H]ketanserin
T3 construct: Rat cortical synaptosomal membranes were prepared on the day of assay; from tissue; host or cells: rat frontal cortex synaptosomal membranes
T3 sequence (P14842 whole entry): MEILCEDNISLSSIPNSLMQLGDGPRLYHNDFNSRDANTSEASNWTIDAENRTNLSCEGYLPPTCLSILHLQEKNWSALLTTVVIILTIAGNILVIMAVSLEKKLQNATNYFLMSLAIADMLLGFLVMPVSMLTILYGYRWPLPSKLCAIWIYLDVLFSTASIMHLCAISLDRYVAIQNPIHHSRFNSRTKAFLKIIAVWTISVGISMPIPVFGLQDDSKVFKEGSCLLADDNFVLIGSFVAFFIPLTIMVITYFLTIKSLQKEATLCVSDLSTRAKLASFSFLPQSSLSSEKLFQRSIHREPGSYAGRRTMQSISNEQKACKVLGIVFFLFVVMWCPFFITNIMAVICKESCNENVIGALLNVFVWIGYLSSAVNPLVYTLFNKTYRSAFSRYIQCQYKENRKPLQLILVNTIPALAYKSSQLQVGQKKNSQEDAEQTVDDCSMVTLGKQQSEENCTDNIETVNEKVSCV
Procedure: The potency of compounds to inhibit the specific binding of [^3 H]ketanserin (84.2 Ci/mM) to serotonin 5-HT2 receptors was determined as detailed previously [J. E. Leysen, C. J. E. Niemegers, J. M. Van Neuten and P. M. Laduron, Mol. Pharmacol., 21, 301-314 (1982)]. Rat cortical synaptosomal membranes were prepared on the day of assay. Animals were sacrified by decapitation, the frontal cortex was removed and homogenized in 10 volumes (w/v) of ice-cold 0.32M sucrose using a motor driven teflon pestle fitted to a glass tube. The synaptosomal pellet was suspended in 50 mM Tris HCl (pH 7.6 at 25° C.) to a concentration of 7.5 mg original wet weight/mL. For the binding reaction, 400 μL of this tissue suspension was added to polypropylene tubes containing 50 mM Tris HCl and [^3 H]ketanserin (final concentration of 1 nM) in a final assay volume of 0.5 mL. Following a 15 minute incubation at 37° C., the binding reaction was terminated by rapid vacuum filtration over Whatman GF/B filters (presoaked in 0.1% PEI) followed by 3×4 mL washes with ice cold 50 mM Tris HCl. Nonspecific binding was assessed in the presence of 10 μM methysergide. All incubations were performed in triplicate. IC50 values were determined using log logit analysis.

[4] = guinea pig brain, read-out: Sigma [3H](+)-3-PPP binding IC50
[5] = rat corpus striatum, 3 nM [3H]sulpiride, read-out: Dopamine D-2 [3H]sulpiride Ki
[6] = read-out: Serotonin 5-HT2 [3H]ketanserin, % @ 1 μM
[7] = read-out: Serotonin 5-HT2 [3H]ketanserin, value @ 1 μM

`O=C(COc1ccc(Cl)c(Cl)c1)N1C2CCC1c1c([nH]c3ccccc13)C2` (stereo not shown) [7 H H COCH2 O-3,4-Cl2 Ph 2] was tested, and the IC50 [1] was > 10000 nM, the IC50 [2, 4] was > 10000 nM and the Ki (dopamine (D-2) receptors; [5]) was 64500 nM. For the same compound, the inhibition at 1 µM [3, 6] was 24.7%.

For `Fc1ccc2[nH]c3c(c2c1)C1CCC(C3)N1Cc1ccccc1` (stereo not shown) [4 F H CH2 Ph 2], the IC50 [1] was 86 ± 14 nM, the IC50 [2, 4] was 908 ± 222 nM and the Ki (dopamine (D-2) receptors; [5]) was 3740 nM. For the same compound, the inhibition at 1 µM [3, 6] was 3.3%.

For `Clc1ccc(OCCN2C3CCC2c2c([nH]c4ccccc24)C3)cc1` (stereo not shown) [1 H H (CH2)2 O-4-ClPh 2], the IC50 [1] was 268 ± 38 nM, the IC50 [2, 4] was 5980 ± 3510 nM and the Ki (dopamine (D-2) receptors; [5]) was 530 nM. For the same compound, the Ki [3] was 377 nM.

In the case of `c1ccc(CCCCCN2C3CCC2c2c([nH]c4ccccc24)C3)cc1` (stereo not shown) [1 H H (CH2)5 Ph 2], the IC50 [1] is reported as 107 ± 59 nM, the IC50 [2, 4] is reported as 348 ± 70 nM and the Ki (dopamine (D-2) receptors; [5]) is reported as 680 ± 230 nM. For the same compound, the Ki [3] was 42.5 nM.

For `O=C(CCCN1C2CCCC1c1c([nH]c3ccc(F)cc13)C2)c1ccc(F)cc1` (stereo not shown) [12 F H (CH2)3 CO 4-FPh 3], the IC50 [1] was 23 nM, the IC50 [2, 4] was 103 nM and the Ki (dopamine (D-2) receptors; read-out: Dopamine D-2 [3H]sulpiride Ki) was 200 nM. It also gave a Ki [3] of 2.5 nM.

For `CC(CCc1ccccc1)N1C2CCC1c1c([nH]c3ccccc13)C2` (single isomer, unassigned) [1 (high Rf) H H CH(CH3)(CH2)2 Ph 2], the IC50 [1] was 23 nM, the IC50 [2, 4] was 1500 nM and the Ki (dopamine (D-2) receptors; [5]) was 1110 nM.

With `O=C(CCCCN1C2CCC1c1c([nH]c3ccccc13)C2)c1ccc(F)cc1` (stereo not shown) [1 H H (CH2)4 CO 4-FPh 2] the IC50 [1] was 131 nM, the IC50 [2, 4] was 224 nM and the Ki (dopamine (D-2) receptors; Dopamine D-2 [3H]sulpiride Ki, rat corpus striatum, 3 nM [3H]sulpiride) was 3.5 nM.

Compound `O=C(CCCN1C2CCC1c1c([nH]c3ccc(F)cc13)C2)c1ccc(F)cc1` (stereo not shown) [4 F H (CH2)3 CO 4-FPh 2] has an IC50 [1] of 55 nM, an IC50 [2, 4] of 408 nM and a Ki [3] of 2.07 nM.

`c1ccc2c3c([nH]c2c1)CC1CCC3N1` (stereo not shown) [1 H H -- H 2] gave an IC50 [2, 4] of 2180 nM, a Ki (dopamine (D-2) receptors; [5]) of 100000 nM and an inhibition at 1 µM [3, 6] of 0.2%.

`CC(C)n1c2c(c3ccccc31)C1CCC(C2)N1CCCCc1ccccc1` (stereo not shown) [5 H 2-Pr (CH2)4 Ph 2] gave an IC50 [1] of 231 nM, an IC50 [2, 4] of 705 ± 20 nM and a Ki (dopamine (D-2) receptors; [5]) of 2640 ± 270 nM. The inhibition at 1 µM [3, 6] was 46%.

Work on `c1ccc(OCCN2C3CCC2c2c([nH]c4ccccc24)C3)cc1` (stereo not shown) [1 H H (CH2)2 OPh 2] yielded an IC50 [1] of 110 ± 14 nM, an IC50 [2, 4] of 534 ± 57 nM and a Ki (dopamine (D-2) receptors; [5]) of 2600 nM. For the same compound, the Ki [3] was 20 nM.

With `c1ccc(OCCCN2C3CCC2c2c([nH]c4ccccc24)C3)cc1` (stereo not shown) [1 H H (CH2)3 OPh 2] the IC50 [1] was 132 ± 16 nM, the IC50 [2, 4] was 262 ± 19 nM and the Ki (dopamine (D-2) receptors; [5]) was 1270 ± 260 nM. For the same compound, the Ki [3] was 22.9 nM.

For `OCCCN1C2CCC1c1c([nH]c3ccc(F)cc13)C2` (stereo not shown) [4 F H (CH2)3 OH 2], the IC50 [1] was 317 ± 49 nM, the IC50 [2, 4] was 1380 ± 188 nM and the Ki (dopamine (D-2) receptors; [5]) was 37300 nM. The inhibition at 1 µM [3, 7] was 5.6%.

`O=C1c2ccccc2C(=O)N1CCCN1C2CCC1c1c([nH]c3ccc(F)cc13)C2` (stereo not shown) [6 F H (CH2)3 2-phthalimido 2] showed an IC50 [1] of 836 nM, an IC50 [2, 4] of 3330 ± 1810 nM and a Ki (dopamine (D-2) receptors; [5]) of 12300 ± 1700 nM. It also gave an inhibition at 1 µM [3, 7] of 4.9%.

With `O=C(CCCN1C2CCC1c1c(n(-c3ccccc3)c3ccccc13)C2)c1ccc(F)cc1` (stereo not shown) [2 H Ph (CH2)3 CO 4-FPh 2] the IC50 [1] was 528 nM, the IC50 [2, 4] was 510 nM and the Ki (dopamine (D-2) receptors; [5]) was 840 nM. The Ki [3] was 814 nM.

`Fc1ccc(C(=CCCN2C3CCCC2c2c([nH]c4ccccc24)C3)c2ccc(F)cc2)cc1` (stereo not shown) [11 H H (CH2)2 CHC (4-FPh)2 3] was tested, and the IC50 [1] was 1880 nM, the IC50 [2, 4] was > 10000 nM and the Ki (dopamine (D-2) receptors; [5]) was 2310 nM. The Ki [3] was > 1000 nM.

`c1ccc(OCCCCN2C3CCC2c2c([nH]c4ccccc24)C3)cc1` (stereo not shown) [1 H H (CH2)4 OPh 2] gave an IC50 [1] of 88 ± 15 nM, an IC50 [2, 4] of 205 nM and a Ki (dopamine (D-2) receptors; [5]) of 100 nM. For the same compound, the Ki [3] was 48 nM.

`O=C(CCCN1C2CCCC1c1c([nH]c3ccccc13)C2)c1ccc(F)cc1` (stereo not shown) [11 H H (CH2)3 CO 4-FPh 3] was tested, and the IC50 [1] was 43 nM, the IC50 ([2]; Sigma [3H](+)-3-PPP binding IC50, guinea pig brain) was 89 nM and the Ki (dopamine (D-2) receptors; [5]) was 38 nM. It also gave a Ki [3] of 0.46 nM.

With `Fc1ccc(CCCCN2C3CCCC2c2c([nH]c4ccc(F)cc24)C3)cc1` (stereo not shown) [11 F H (CH2)4 4-FPh 3] the IC50 [1] was 61 nM, the IC50 [2, 4] was 150 nM and the Ki (dopamine (D-2) receptors; [5]) was 1470 nM. It also gave a Ki [3] of 205 nM.

For `Fc1ccc2[nH]c3c(c2c1)C1CCCC(C3)N1` (stereo not shown) [12 F H -- H 3], the IC50 [1] was 509 nM, the IC50 [2, 4] was 305 nM and the Ki (dopamine (D-2) receptors; [5]) was 58300 nM. For the same compound, the Ki [3] was 3000 nM.
